Where two headings read alike, the source gives them in different places.
What was measured:
3T3-L1 cells = assay: Induction of adipocyte differentiation (amount of triglyceride biosynthesis); assay type: cell-based; conditions: Mus musculus
Method in brief: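 Differentiation scored as X=(S−N)/(P−N), ranked +++, ++, +, +/−, where S, N and P are triglyceride with compound, DMSO and insulin; triglyceride was extracted with hexane:isopropanol (3:2) and assayed twice. Compound was added after 7 days' growth, first with 0.25 μM dexamethasone (45 h), then for 7 days.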

[1] = test system: mature adipocytes which were induced to be differentiated by xanthoangelol; assay: Glucose uptake into adipocytes induced to be differentiated by xanthoangelol; assay type: cell-based; conditions: stimulation with 4-hydroxyderricin 20 μM; adipocytes differentiated with xanthoangelol 10 μM
Method: Adipocytes which were induced to be differentiated by xanthoangelol were obtained, and thereafter it was confirmed on whether the glucose uptake into the adipocytes is enhanced by stimulation with insulin or 4-hydroxyderricin.
Specifically, as a sample, there was set a group with addition of a dimethyl sulfoxide solution of xanthoangelol having a final concentration of 10 μM. Thereafter, the medium and the sample were exchanged in the same manner as in the method described in Example 82 except that 3-isobutyl-1-methylxanthine having a final concentration of 0.5 mM was added concurrently with the addition of dexamethasone, to give mature adipocytes which were induced to be differentiated by xanthoangelol.
Next, the amount of 2-deoxyglucose uptake into the mature adipocytes during the stimulation with insulin or 4-hydroxyderricin in the resulting mature adipocytes was determined in the same manner as in the method described in Example 83.
Specifically, there were set the group without the addition and the group with addition of insulin having a final concentration of 1 μg/mL or 4-hydroxyderricin having a final concentration of 20 μM. Thereafter, the amount of 2-deoxy-[1,2-^3H(N)]-glucose uptake into the adipocytes was determined in the same manner.

[2] = Toxicity test, forcible oral administration for 3 consecutive days; assay type: in vivo; conditions: female ICR mice, 1 g/kg forcibly orally once a day for 3 days, in CMC or olive oil
Method: The influence of 4-hydroxyderricin and xanthoangelol by forcible oral administration for 3 consecutive days was examined using female 12-week old ICR mice (Japan SLC, Inc.). 4-Hydroxyderricin or xanthoangelol was suspended or dissolved in a 0.5% (w/v) carboxymethyl cellulose solution (CMC) or an olive oil so as to have a concentration of 20% (w/v). The suspension or solution was forcibly orally administered once a day for 3 days in an amount of 5 mL per 1 kg body weight (1 g/kg in terms of 4-hydroxyderricin or xanthoangelol). Three cases were used for each group.

[3] = test system: type II diabetes model mice; assay: Suppressive effects on incidence of diabetes (blend feed); assay type: in vivo, KK-Ay mice; conditions: 0.15% blend feed; for Blood Glucose Level, Previous Day: male 5-week old KK-Ay mice, day before beginning of administration; for Blood Glucose Level, Previous Day / Amount of Drunk Water, Ninth to Fifteenth Day / Amount of Drunk Water, Second to Eighth Day / Blood Glucose Level, Fifteenth Day: mean ± standard error; for effects for suppressing the incidence of diabetes (in words) / changes in body weight, amount of feed taken and general symptoms / Amount of Drunk Water, Ninth to Fifteenth Day / Amount of Drunk Water, Second to Eighth Day / Blood Glucose Level, Fifteenth Day: male KK-Ay mice; for changes in body weight, amount of feed taken and general symptoms: experimental period
Method: The suppressive effects of xanthoangelol and 4-hydroxyderricin on incidence of diabetes were examined using type II diabetes model mice. Experiments were carried out with seven male 5-week old KK-Ay mice (CLEA Japan, Inc.) per group. Xanthoangelol and 4-hydroxyderricin were each mixed in a powder feed (CE-2: CLEA Japan, Inc.) so as to have a ratio of 0.15%, and the mice were fed with the blended power feed. The mice in the control group were fed with the powder feed (CE-2). On the day before the beginning of administration, and on the fifteenth day, the blood glucose level was determined in the same manner as in Example 88. In addition, as an index of the incidence of diabetes, amounts of drunk water from the second to eighth days and from the ninth to fifteenth days from the administration were determined, and an average amount of drunk water per day was calculated, respectively. By administration of a mixed feed with xanthoangelol or 4-hydroxyderricin, the suppression of increase in a blood glucose level was found. Further, the suppression of increase in the amount of drunk water which is an index of the incidence of diabetes was found. […] During the experimental period, no changes were found in body weight, amount of feed taken and general symptoms.

[4] = 3T3-L1, X=(S−N)/(P−N) of amount of triglyceride, P=insulin positive control, read-out: Action for Induction of Differentiation
[5] = 3T3-L1, 3 μM, X=(S−N)/(P−N) of amount of triglyceride, P=insulin positive control, read-out: Action for Induction of Differentiation
[6] = 3T3-L1, 10 μM, X=(S−N)/(P−N) of amount of triglyceride, P=insulin positive control, read-out: Action for Induction of Differentiation
[7] = 3T3-L1, read-out: Action for Induction of Differentiation

SMILES	activation at 1 µM (3T3-L1 cells; [4]) [%]	activation at 3 µM (3T3-L1 cells; [5]) [%]	activation at 10 µM (3T3-L1 cells; [6]) [%]	activation at 3 µM (3T3-L1 cells; [7]) [%]	activation at 10 µM (3T3-L1 cells; [7]) [%]	2-deoxy-[1,2-3H(N)]-glucose uptake [1]	cases of death [2]	change in general symptom [2]	Blood Glucose Level, Previous Day [3] [mg/dL]	effects for suppressing the incidence of diabetes (in words) [3]	changes in body weight, amount of feed taken and general symptoms [3]	Amount of Drunk Water, Ninth to Fifteenth Day [3] [mL/day]	Amount of Drunk Water, Second to Eighth Day [3] [mL/day]	Blood Glucose Level, Fifteenth Day [3] [mg/dL]	activation at 1.3 µM (3T3-L1 cells; 3T3-L1, 1.3 μM, X=(S−N)/(P−N) of amount of triglyceride, P=insulin positive control, read-out: Action for Induction of Differentiation) [%]	activation at 4 µM (3T3-L1 cells; 3T3-L1, 4 μM, X=(S−N)/(P−N) of amount of triglyceride, P=insulin positive control, read-out: Action for Induction of Differentiation) [%]	activation at 13 µM (3T3-L1 cells; 3T3-L1, 13 μM, X=(S−N)/(P−N) of amount of triglyceride, P=insulin positive control, read-out: Action for Induction of Differentiation) [%]
COc1ccc(C(=O)/C=C/c2ccc(O)cc2)c(O)c1C/C=C(\C)CCC=C(C)C [Xanthoangelol F, 4,2′-Dihydroxy-3′-geranyl-4′-methoxychalcone]	60 to 100	> 100	> 100														
COc1ccc(C(=O)/C=C/c2ccc(O)cc2)c(O)c1CC=C(C)C [4-Hydroxyderricin, 4,2′-Dihydroxy-3′-prenyl-4′-methoxychalcone]				60 to 100	> 100	enhancement of 2-deoxy-[1,2-^3H(N)]-glucose uptake	No cases of death	no change	226 ± 14	effects for suppressing the incidence of diabetes was found	no changes	10.0 ± 0.6	7.6 ± 0.2	354 ± 24			
CC(C)=CCC/C(C)=C/Cc1c(O)ccc(C(=O)/C=C/c2ccc(O)cc2)c1O [Xanthoangelol, 4,2′,4′-Trihydroxy-3′-geranylchalcone]	15 to 30	60 to 100	> 100				No cases of death	no change	232 ± 11	effects for suppressing the incidence of diabetes was found	no changes	14.6 ± 2.0	10.3 ± 1.3	426 ± 39			
COc1ccc(C(=O)/C=C/c2ccc(O)cc2)c2c1CC(O)C(C)(C)O2 (stereo not shown) [Xanthoangelol H]															30 to 60	60 to 100	> 100
